Patent publication US20080039455A1, “PYRAZOLOPYRIMIDINES AND SALTS THEREOF, PHARMACEUTICAL COMPOSITIONS COMPRISING SAME, METHODS OF PREPARING SAME AND USES OF SAME” (priority 2006, published 2008)
Structures can show the parent of a compound that is named as a salt.

molecular target: T1, human recombinant ALK1 (GST fused to ALK1 intracellular domain [His142-Gln503]) (Homo sapiens, UniProt P37023); test: ALK1-Kinase Flashplate-Assay; format: biochemical; details: 0.5 μM ATP, biotinylated α-casein substrate; read-out: Assay 1 (ALK1-Kinase Flashplate-Assay IC50 class)
T1 construct: GST fused to ALK1 intracellular domain [His142-Gln503]; made in house
T1 sequence (P37023 142-503): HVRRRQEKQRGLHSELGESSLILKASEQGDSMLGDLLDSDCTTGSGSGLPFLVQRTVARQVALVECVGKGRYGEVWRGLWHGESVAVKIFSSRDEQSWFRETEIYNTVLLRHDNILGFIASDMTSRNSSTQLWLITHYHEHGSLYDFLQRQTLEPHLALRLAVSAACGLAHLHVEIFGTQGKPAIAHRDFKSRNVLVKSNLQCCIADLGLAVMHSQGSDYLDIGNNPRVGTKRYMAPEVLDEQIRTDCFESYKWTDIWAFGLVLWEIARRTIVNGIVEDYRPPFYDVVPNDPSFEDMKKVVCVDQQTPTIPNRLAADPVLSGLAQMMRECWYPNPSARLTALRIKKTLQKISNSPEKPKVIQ
Summary of the method: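 Radiometric Flashplate assay at 20 °C: GST-ALK1 intracellular domain (5 ng/well) with 1 μM biotinylated bovine α-casein, 0.5 μM ATP plus [γ-33P]ATP in Tris pH 8.0, 1 mM MnCl2, 1% or 5% DMSO, 60 min. Normalised to no-inhibitor (0%) and 10 mM EDTA (100%); IC50 by 4-parameter fit.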

Row | IC50 [nM] | SMILES
1 | 1000 to 10000 | CN(C)CCNC(=O)c1cccc(-c2cnn3ccc(Nc4ccc(Oc5ccccc5)cc4)nc23)c1 [Example 329, N-(2-Dimethylamino-ethyl)-3-[5-(4-phenoxy-phenylamino)-pyrazolo[1,5-a]pyrimidin-3-yl]-benzamide]
2 | 1000 to 10000 | COc1ccc(Nc2ccn3ncc(-c4cccc(N(C)C)c4)c3n2)cn1 [Example 332, [3-(3-Dimethylamino-phenyl)-pyrazolo[1,5-a]pyrimidin-5-yl]-(6-methoxy-pyridin-3-yl)-amine]
3 | 1000 to 10000 | OC1CCC(Nc2ccn3ncc(-c4ccc(F)c(Cl)c4)c3n2)CC1 (stereo not drawn) [Example 373, 4-[3-(3-Chloro-4-fluoro-phenyl)-pyrazolo[1,5-a]pyrimidin-5-ylamino]-cyclohexanol]
4 | 1000 to 10000 | c1ccc(-c2cnn3ccc(NCc4cccnc4)nc23)cc1 [Example 376, (3-Phenyl-pyrazolo[1,5-a]pyrimidin-5-yl)-pyridin-3-ylmethyl-amine]
5 | 1000 to 10000 | Fc1ccc(-c2cnn3ccc(NCc4cccnc4)nc23)cc1Cl [Example 379, [3-(3-Chloro-4-fluoro-phenyl)-pyrazolo[1,5-a]pyrimidin-5-yl]-pyridin-3-ylmethyl-amine]
6 | < 1000 | Clc1cccc(-c2cnn3ccc(NCc4ccncc4)nc23)c1 [Example 395, [3-(3-Chloro-phenyl)-pyrazolo[1,5-a]pyrimidin-5-yl]-pyridin-4-ylmethyl-amine]
7 | 1000 to 10000 | FC(F)(F)c1cccc(-c2cnn3ccc(NCc4ccncc4)nc23)c1 [Example 397, Pyridin-4-ylmethyl-[3-(3-trifluoromethyl-phenyl)-pyrazolo[1,5-a]pyrimidin-5-yl]-amine]
8 | < 1000 | Fc1ccc(-c2cnn3ccc(NCc4ccncc4)nc23)cc1 [Example 398, [3-(4-Fluoro-phenyl)-pyrazolo[1,5-a]pyrimidin-5-yl]-pyridin-4-ylmethyl-amine]
9 | 1000 to 10000 | Nc1ccc(C(=O)Nc2ccc(Nc3ccn4ncc(-c5ccc(F)cc5)c4n3)cc2)cc1 [Example 400, 4-Amino-N-{4-[3-(4-fluoro-phenyl)-pyrazolo[1,5-a]pyrimidin-5-ylamino]-phenyl}-benzamide]
10 | 1000 to 10000 | Clc1cccc(-c2cnn3ccc(NCc4cccnc4)nc23)c1 [Example 402, [3-(3-Chloro-phenyl)-pyrazolo[1,5-a]pyrimidin-5-yl]-pyridin-3-ylmethyl-amine]
11 | 1000 to 10000 | Fc1ccccc1-c1cnn2ccc(NCc3cccnc3)nc12 [Example 408, [3-(2-Fluoro-phenyl)-pyrazolo[1,5-a]pyrimidin-5-yl]-pyridin-3-ylmethyl-amine]
12 | < 1000 | COc1cc(-c2cnn3ccc(NCc4ccncc4)nc23)cc(OC)c1OC [Example 418, Pyridin-4-ylmethyl-[3-(3,4,5-trimethoxy-phenyl)-pyrazolo[1,5-a]pyrimidin-5-yl]-amine]
13 | 1000 to 10000 | COc1cc(-c2cnn3ccc(Nc4cc(OC)c(OC)c(OC)c4)nc23)ccc1O [Example 424, 2-Methoxy-4-[5-(3,4,5-trimethoxy-phenylamino)-pyrazolo[1,5-a]pyrimidin-3-yl]-phenol]
14 | 1000 to 10000 | COc1ccc(-c2cnn3ccc(Nc4ccc(OC)nc4)nc23)cc1 [Example 425, [3-(4-Methoxy-phenyl)-pyrazolo[1,5-a]pyrimidin-5-yl]-(6-methoxy-pyridin-3-yl)-amine]
15 | 1000 to 10000 | Cc1ccc(Nc2ccn3ncc(-c4cccc(CO)c4)c3n2)cc1NS(C)(=O)=O [Example 431, N-{5-[3-(3-Hydroxymethyl-phenyl)-pyrazolo[1,5-a]pyrimidin-5-ylamino]-2-methyl-phenyl}-methanesulfonamide]
16 | 1000 to 10000 | COc1ccc(-c2cnn3ccc(Nc4ccc(O)cc4)nc23)c(OC)c1 [Example 435, 4-[3-(2,4-Dimethoxy-phenyl)-pyrazolo[1,5-a]pyrimidin-5-ylamino]-phenol]
17 | 1000 to 10000 | COc1ccc(Nc2ccn3ncc(-c4cccc(C(C)=O)c4)c3n2)cn1 [Example 437, 1-{3-[5-(6-Methoxy-pyridin-3-ylamino)-pyrazolo[1,5-a]pyrimidin-3-yl]-phenyl}-ethanone]
18 | < 1000 | CS(=O)(=O)Nc1cccc(-c2cnn3ccc(Nc4ccc(N5CCOCC5)cc4)nc23)c1 [Example 447, N-{3-[5-(4-Morpholin-4-yl-phenylamino)-pyrazolo[1,5-a]pyrimidin-3-yl]-phenyl}-methanesulfonamide]
19 | 1000 to 10000 | CC(=O)Nc1cccc(-c2cnn3ccc(Nc4cccc(Cl)c4)nc23)c1 [Example 453, N-{3-[5-(3-Chloro-phenylamino)-pyrazolo[1,5-a]pyrimidin-3-yl]-phenyl}-acetamide]
20 | 1000 to 10000 | COc1cc(Nc2ccn3ncc(-c4ccc(O)cc4)c3n2)cc(OC)c1OC [Example 463, 4-[5-(3,4,5-Trimethoxy-phenylamino)-pyrazolo[1,5-a]pyrimidin-3-yl]-phenol]
21 | 1000 to 10000 | COc1ccc(Nc2ccn3ncc(-c4ccsc4)c3n2)cn1 [Example 464, (6-Methoxy-pyridin-3-yl)-(3-thiophen-3-yl-pyrazolo[1,5-a]pyrimidin-5-yl)-amine]

Further lines, the molecule ahead of its results:

Row | SMILES | IC50 [nM]
22 | CC(=O)Nc1ccc(Nc2ccn3ncc(-c4cccc(N(C)C)c4)c3n2)cc1 [Example 331, N-{4-[3-(3-Dimethylamino-phenyl)-pyrazolo[1,5-a]pyrimidin-5-ylamino]-phenyl}-acetamide] | 1000 to 10000
23 | COc1ccc(Nc2ccn3ncc(-c4cccc(N)c4)c3n2)cn1 [Example 337, [3-(3-Amino-phenyl)-pyrazolo[1,5-a]pyrimidin-5-yl]-(6-methoxy-pyridin-3-yl)-amine] | 1000 to 10000
24 | Nc1cccc(-c2cnn3ccc(Nc4ccc(O)cc4)nc23)c1 [Example 338, 4-[3-(3-Amino-phenyl)-pyrazolo[1,5-a]pyrimidin-5-ylamino]-phenol] | 1000 to 10000
25 | c1cncc(CNc2ccn3ncc(-c4cccc5ccccc45)c3n2)c1 [Example 377, (3-Naphthalen-1-yl-pyrazolo[1,5-a]pyrimidin-5-yl)-pyridin-3-ylmethyl-amine] | < 1000
26 | OC1CCC(Nc2ccn3ncc(-c4ccc(F)cc4)c3n2)CC1 (stereo not drawn) [Example 401, 4-[3-(4-Fluoro-phenyl)-pyrazolo[1,5-a]pyrimidin-5-ylamino]-cyclohexanol] | 1000 to 10000
27 | Fc1cccc(-c2cnn3ccc(NCc4cccnc4)nc23)c1 [Example 405, [3-(3-Fluoro-phenyl)-pyrazolo[1,5-a]pyrimidin-5-yl]-pyridin-3-ylmethyl-amine] | 1000 to 10000
28 | c1ccc2c(-c3cnn4ccc(Nc5ccc(N6CCOCC6)cc5)nc34)cccc2c1 [Example 412, (4-Morpholin-4-yl-phenyl)-(3-naphthalen-1-yl-pyrazolo[1,5-a]pyrimidin-5-yl)-amine] | 1000 to 10000
29 | COc1cccc(-c2cnn3ccc(Nc4cccc(Cl)c4)nc23)c1 [Example 444, (3-Chloro-phenyl)-[3-(3-methoxy-phenyl)-pyrazolo[1,5-a]pyrimidin-5-yl]-amine] | 1000 to 10000
30 | COc1ccc(-c2cnn3ccc(Nc4cc(OC)c(OC)c(OC)c4)nc23)cc1OC [Example 462, [3-(3,4-Dimethoxy-phenyl)-pyrazolo[1,5-a]pyrimidin-5-yl]-(3,4,5-trimethoxy-phenyl)-amine] | 1000 to 10000
31 | c1cc(-c2cnn3ccc(Nc4ccc(N5CCOCC5)cc4)nc23)cs1 [Example 467, (4-Morpholin-4-yl-phenyl)-(3-thiophen-3-yl-pyrazolo[1,5-a]pyrimidin-5-yl)-amine] | 1000 to 10000
32 | c1ccc(Oc2ccc(Nc3ccn4ncc(-c5ccncc5)c4n3)cc2)cc1 [Example 468, (4-Phenoxy-phenyl)-(3-pyridin-4-yl-pyrazolo[1,5-a]pyrimidin-5-yl)-amine] | 1000 to 10000
33 | c1cc(N2CCOCC2)ccc1Nc1ccn2ncc(-c3ccc4c(c3)OCO4)c2n1 [Example 472, (3-Benzo[1,3]dioxol-5-yl-pyrazolo[1,5-a]pyrimidin-5-yl)-(4-morpholin-4-yl-phenyl)-amine] | 1000 to 10000
34 | COc1cc(-c2cnn3ccc(NC4CCC(O)CC4)nc23)cc(OC)c1OC (stereo not drawn) [Example 474, 4-[3-(3,4,5-Trimethoxy-phenyl)-pyrazolo[1,5-a]pyrimidin-5-ylamino]-cyclohexanol] | < 1000
35 | COc1ccc(-c2cnn3ccc(Nc4ccccc4)nc23)cc1OC [Example 478, [3-(3,4-Dimethoxy-phenyl)-pyrazolo[1,5-a]pyrimidin-5-yl]-phenyl-amine] | 1000 to 10000
36 | CCN(CC)CCCNc1ccn2ncc(-c3cccc(Cl)c3)c2n1 [Example 486, N′-[3-(3-chloro-phenyl)-pyrazolo[1,5-a]pyrimidin-5-yl]-N,N-diethyl-propane-1,3-diamine] | 1000 to 10000
37 | CCN(CC)CCCNc1ccn2ncc(-c3ccc(C)c(Cl)c3)c2n1 [Example 492, N′-[3-(3-Chloro-4-methyl-phenyl)-pyrazolo[1,5-a]pyrimidin-5-yl]-N,N-diethyl-propane-1,3-diamine] | 1000 to 10000
38 | c1csc(-c2cnn3ccc(NC4CCCCC4)nc23)c1 [Example 494, Cyclohexyl-(3-thiophen-2-yl-pyrazolo[1,5-a]pyrimidin-5-yl)-amine] | 1000 to 10000
39 | c1csc(-c2cnn3ccc(NC4CCCNC4)nc23)c1 (stereo not drawn) [Example 496, Piperidin-3-yl-(3-thiophen-2-yl-pyrazolo[1,5-a]pyrimidin-5-yl)-amine mono TFA salt] | 1000 to 10000
